We go through 35 compounds from patent publication US11261192B2, “Substituted 1,2-dihydro-3H-pyrazolo[3,4-D]pyrimidin-3-ones” (Recurium IP Holdings, LLC, priority 2018, dated 2022).

Broadly, the IC50 is the concentration needed to halve the response being measured.

One test has as its target Wee1 kinase (Homo sapiens, UniProt P30291). The test is described as follows: Wee1 Binding Assay (FRET). The procedure:
Wee 1 kinase was determined by using Fluorescence Resonance Energy Transfer (FRET) assay. […] The plate was shaken for 30 seconds, incubated for 60 min at RT, and recorded on fluorescence plate reader.

In a further test the test system is H23 cells. The test is described as follows: H23 Cellular Proliferation Assay (CellTiter-Glo). The test is classed as cell-based. The following applies: Homo sapiens, NCI-H23, 96 h, 4 days, read-out: H23 CTG IC50. The procedure:
H23 Cellular Proliferation Assay
Cells were treated with compounds diluted in DMSO and a 9 point 5-fold serial dilutions. Plates were placed in 37° C., 5% CO2 for to incubate for 4 days. Before they were developed by adding 100 μL of CellTiter-Glo reagent (Promega) to the assay plate, plates were shaken briefly for 2 mins and allowed to incubate at rt for 10 mins. The plates are read with a M5e plate reader according to CellTiter-Glo protocol. The GraphPad Prism software is used to get IC50 values.
A general note: In ATP-based viability assays light output follows the ATP content of the culture.

[1] abbreviates: FRET, Wee1 kinase 2 nM, tracer 178 50 nM, 60 min at RT, read-out: Wee1 enzymatic IC50.

Where two headings read alike, the source gives them in different places. A value given as a limit tells only on which side of the number the result lay.

Chain of Wee1 kinase (P30291 whole entry): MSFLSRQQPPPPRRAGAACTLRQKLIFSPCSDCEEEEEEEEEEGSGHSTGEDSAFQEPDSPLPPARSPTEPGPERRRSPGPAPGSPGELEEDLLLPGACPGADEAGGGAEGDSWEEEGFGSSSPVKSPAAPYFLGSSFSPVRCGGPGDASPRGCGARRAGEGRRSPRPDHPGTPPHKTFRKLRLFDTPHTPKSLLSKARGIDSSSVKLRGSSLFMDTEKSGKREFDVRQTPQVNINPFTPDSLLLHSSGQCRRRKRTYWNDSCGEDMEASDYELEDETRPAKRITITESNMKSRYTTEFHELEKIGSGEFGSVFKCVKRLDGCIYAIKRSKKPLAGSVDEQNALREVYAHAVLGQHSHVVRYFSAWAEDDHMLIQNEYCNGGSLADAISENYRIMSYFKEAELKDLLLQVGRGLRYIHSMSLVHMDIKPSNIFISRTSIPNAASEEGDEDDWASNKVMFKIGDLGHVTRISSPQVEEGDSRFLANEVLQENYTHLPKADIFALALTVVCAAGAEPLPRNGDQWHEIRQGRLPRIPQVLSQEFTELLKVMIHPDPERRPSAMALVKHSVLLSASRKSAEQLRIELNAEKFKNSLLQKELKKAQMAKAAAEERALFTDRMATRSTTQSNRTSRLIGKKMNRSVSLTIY

As for `C=CCn1c(=O)c2cnc(Nc3ccc(N4CCN(C)CC4)cc3)nc2n1-c1ccc2c(c1)[C@@](O)(CC)CC2` (single isomer, unassigned) [Example 22B], the IC50 at Wee1 kinase (setting [1]) was less than 10 nM; with H23 cells, 100 to 1000 nM.
For `C=CCn1c(=O)c2cnc(Nc3ccc(N4CCN(C)CC4)cc3)nc2n1-c1cn2c(n1)[C@@](C)(O)CC2` (single isomer, unassigned) [Example 36A], in that order: 10 to 100 nM and greater than 1000 nM.
`C=CCn1c(=O)c2cnc(Nc3ccc(N4CCN(C)CC4)cc3)nc2n1-c1ccc2c(n1)C(F)(F)CC2` [Example 8, 2-Allyl-1-(7,7-difluoro-6,7-dihydro-5H-cyclopenta[b]pyridin-2-yl)-6-((4-(4-methylpiperazin-1-yl)phenyl)amino)-1,2-dihydro-3H-pyrazolo[3,4-d]pyrimidin-3-one]: the IC50 is less than 10 nM at Wee1 kinase and 100 to 1000 nM in the test on H23 cells.
The corresponding values for `C=CCn1c(=O)c2cnc(Nc3ccc(N4CCN(C)CC4)c(C)c3)nc2n1-c1ccc2c(n1)[C@](C)(O)CC2` (single isomer, unassigned) [Example 10B] are less than 10 nM and 100 to 1000 nM.
As to `C=CCn1c(=O)c2cnc(Nc3ccc(N4CCN(C)CC4)cc3)nc2n1-c1cnc2c(c1)[C@](C)(O)CO2` (single isomer, unassigned) [Example 35B], the IC50 at Wee1 kinase (setting [1]) is 10 to 100 nM; in the test on H23 cells, greater than 1000 nM.
In the case of `C=CCn1c(=O)c2cnc(Nc3ccc(N4CCN(C)CC4)c(C)c3)nc2n1-c1ccc2c(n1)[C@](O)(CC)CC2` (single isomer, unassigned) [Example 12A], the IC50 is less than 10 nM on Wee1 kinase and 100 to 1000 nM with H23 cells.
Consider `C=CCn1c(=O)c2cnc(Nc3ccc(N4CCN(C)CC4)cc3)nc2n1-c1ccc2c(c1)[C@](O)(CC)CC2` (single isomer, unassigned) [Example 22A], for which the results for the IC50 at Wee1 kinase (setting [1]) and with H23 cells were 10 to 100 nM and greater than 1000 nM, respectively.
Turning to `C=CCn1c(=O)c2cnc(Nc3ccc(N4CCN(C)CC4)cc3)nc2n1-c1ccc2c(n1)[C@@](O)(CC)CCC2` (single isomer, unassigned) [Example 26B], the IC50 at Wee1 kinase was less than 10 nM; in the test on H23 cells it was less than 100 nM.
For the compound `C=CCn1c(=O)c2cnc(Nc3ccc(N4CCN(C)CC4)cc3)nc2n1-c1ccc2c(n1)[C@](O)(C(F)(F)F)CC2` (single isomer, unassigned) [Example 3A], the IC50 is less than 10 nM on Wee1 kinase and greater than 1000 nM in the test on H23 cells.
In the case of `C=CCn1c(=O)c2cnc(Nc3ccc(N4CCN(C)CC4)cc3)nc2n1-c1ccc2c(n1)[C@@](O)(C(F)(F)F)CC2` (single isomer, unassigned) [Example 3B], the IC50 is less than 10 nM at Wee1 kinase and 100 to 1000 nM in the test on H23 cells.
For `C=CCn1c(=O)c2cnc(Nc3ccc(N4CCN(C)CC4)cc3)nc2n1-c1cnc2c(c1)[C@@](C)(O)CO2` (single isomer, unassigned) [Example 35A, 2-allyl-1-(3-hydroxy-3-methyl-2,3-dihydrofuro[2,3-b]pyridin-5-yl)-6-((4-(4-methylpiperazin-1-yl)phenyl)amino)-1,2-dihydro-3H-pyrazolo[3,4-d]pyrimidin-3-one], the IC50 at Wee1 kinase (setting [1]) was 10 to 100 nM; in the test on H23 cells, greater than 1000 nM.
As for `C=CCn1c(=O)c2cnc(Nc3ccc(N4CCN(C)CC4)c(C)c3)nc2n1-c1ccc2c(n1)[C@@](C)(O)CC2` (single isomer, unassigned) [Example 10A], the IC50 is less than 10 nM at Wee1 kinase and 100 to 1000 nM in the test on H23 cells.
Take `C=CCn1c(=O)c2cnc(Nc3ccc(N4CCN(C)CC4)c(F)c3)nc2n1-c1ccc2c(n1)[C@](C)(O)CC2` (single isomer, unassigned) [Example 11B]: the results for the IC50 at Wee1 kinase (setting [1]) and in the test on H23 cells were less than 10 nM and 100 to 1000 nM, respectively.
On to `C=CCn1c(=O)c2cnc(Nc3ccc(N4CCN(C)CC4)cc3)nc2n1-c1ccc2c(n1)[C@@](C)(O)CCC2` (single isomer, unassigned) [Example 25A], for which the IC50 at Wee1 kinase is less than 10 nM; with H23 cells, 100 to 1000 nM.
For the compound `C=CCn1c(=O)c2cnc(Nc3ccc(N4CCN(C)CC4)c(C)c3)nc2n1-c1ccc2c(n1)[C@](C)(O)CCC2` (single isomer, unassigned) [Example 27B], the IC50 is less than 10 nM at Wee1 kinase (setting [1]) and 100 to 1000 nM with H23 cells.
As to `C=CCn1c(=O)c2cnc(Nc3ccc(N4CCN(C)CC4)cc3)nc2n1-c1ccc2c(n1)[C@](O)(CC)CCC2` (single isomer, unassigned) [Example 26A], the IC50 was less than 10 nM on Wee1 kinase and greater than 1000 nM with H23 cells.
`C=CCn1c(=O)c2cnc(Nc3ccc(N4CCN(C)CC4)cc3)nc2n1-c1ccc2c(n1)[C@H](O)CC2` (single isomer, unassigned) [Example 1B]: at Wee1 kinase, the IC50 is less than 10 nM.
Take `C=CCn1c(=O)c2cnc(Nc3ccc(N4CCN(C)CC4)cc3)nc2n1-c1ccc2c(c1)[C@@](C)(O)CC2` (single isomer, unassigned) [Example 21A]: the results for the IC50 at Wee1 kinase and in the test with H23 cells were less than 10 nM and greater than 1000 nM, respectively.
In the case of `C=CCn1c(=O)c2cnc(Nc3ccc(N4CCN(C)CC4)cc3)nc2n1-c1ccc2c(n1)[C@@](C)(O)CC2` (single isomer, unassigned) [Example 2A], the values for the IC50 at Wee1 kinase and with H23 cells were less than 10 nM and greater than 1000 nM, respectively.
For `C=CCn1c(=O)c2cnc(Nc3ccc(N4CCN(C)CC4)cc3)nc2n1-c1ccc2c(n1)[C@](O)(C(F)F)CC2` (single isomer, unassigned) [Example 15A], in that order: less than 10 nM and greater than 1000 nM.
The corresponding values for `C=CCn1c(=O)c2cnc(Nc3ccc(N4CCN(C)CC4)cc3)nc2n1-c1ccc2c(n1)[C@@](O)(C(F)F)CC2` (single isomer, unassigned) [Example 15B] are less than 10 nM and 100 to 1000 nM.
For the compound `C=CCn1c(=O)c2cnc(Nc3ccc(N4CCN(C)CC4)cc3)nc2n1-c1ccc2c(n1)[C@@](C)(O)CO2` (single isomer, unassigned) [Example 4A], the IC50 at Wee1 kinase is less than 10 nM; in the test with H23 cells, greater than 1000 nM.
For the compound `C=CCn1c(=O)c2cnc(Nc3ccc(N4CCN(C)CC4)cc3)nc2n1-c1cn2c(n1)[C@](C)(O)CC2` (single isomer, unassigned) [Example 36B], the results for the IC50 at Wee1 kinase (setting [1]) and with H23 cells were greater than 100 nM and greater than 1000 nM, respectively.
As for `C=CCn1c(=O)c2cnc(Nc3ccc(N4CCN(C)CC4)cc3)nc2n1-c1ccc2c(c1)[C@](C)(O)CC2` (single isomer, unassigned) [Example 21B], the results for the IC50 on Wee1 kinase and in the test with H23 cells were less than 10 nM and 100 to 1000 nM, respectively.
For `C=CCn1c(=O)c2cnc(Nc3ccc(N4CCN(C)CC4)cc3)nc2n1-c1ccc2c(n1)[C@](C)(O)CCC2` (single isomer, unassigned) [Example 25B], the IC50 is less than 10 nM at Wee1 kinase and 100 to 1000 nM in the test with H23 cells.
For `C=CCn1c(=O)c2cnc(Nc3ccc(N4CCN(C)CC4)cc3)nc2n1-c1ccc2c(n1)[C@@](O)(CC)CC2` (single isomer, unassigned) [Example 9B], in that order: less than 10 nM and 100 to 1000 nM.
With `C=CCn1c(=O)c2cnc(Nc3ccc(N4CCN(C)CC4)cc3)nc2n1-c1ccc2c(n1)C(=O)N(C)C2` [Example 33, 2-allyl-1-(6-methyl-7-oxo-6,7-dihydro-5H-pyrrolo[3,4-b]pyridin-2-yl)-6-((4-(4-methylpiperazin-1-yl)phenyl)amino)-1,2-dihydro-3H-pyrazolo[3,4-d]pyrimidin-3-one], the IC50 at Wee1 kinase (setting [1]) is 10 to 100 nM; in the test on H23 cells, greater than 1000 nM.
For `C=CCn1c(=O)c2cnc(Nc3ccc(N4CCN(C)CC4)c(C)c3)nc2n1-c1ccc2c(n1)[C@@](C)(O)CCC2` (single isomer, unassigned) [Example 27A], in that order: less than 10 nM and 100 to 1000 nM.
As to `C=CCn1c(=O)c2cnc(Nc3ccc(N4CCN(C)CC4)c(C)c3)nc2n1-c1ccc2c(n1)[C@@](O)(CC)CC2` (single isomer, unassigned) [Example 12B], the IC50 on Wee1 kinase was less than 10 nM; in the test on H23 cells, less than 100 nM.
Turning to `C=CCn1c(=O)c2cnc(Nc3ccc(N4CCNCC4)cc3)nc2n1-c1ccc2c(n1)C(F)(F)CC2` [Example 7, 2-Allyl-1-(7,7-difluoro-6,7-dihydro-5H-cyclopenta[b]pyridin-2-yl)-6-((4-(piperazin-1-yl)phenyl)amino)-1,2-dihydro-3H-pyrazolo[3,4-d]pyrimidin-3-one], the values for the IC50 at Wee1 kinase (setting [1]) and in the test on H23 cells were less than 10 nM and greater than 1000 nM, respectively.
For the compound `C=CCn1c(=O)c2cnc(Nc3ccc4c(c3)CNCC43CC3)nc2n1-c1ccc2c(n1)[C@@](O)(C(F)(F)F)CC2` (single isomer, unassigned) [Example 30B], the IC50 at Wee1 kinase was less than 10 nM; with H23 cells it was 100 to 1000 nM.
On to `C=CCn1c(=O)c2cnc(Nc3ccc(N4CCN(C)CC4)cc3)nc2n1-c1ccc2c(n1)C(=O)NC2` [Example 34, 2-allyl-6-((4-(4-methylpiperazin-1-yl)phenyl)amino)-1-(7-oxo-6,7-dihydro-5H-pyrrolo[3,4-b]pyridin-2-yl)-1,2-dihydro-3H-pyrazolo[3,4-d]pyrimidin-3-one], for which the IC50 on Wee1 kinase (setting [1]) was less than 10 nM.
Regarding `C=CCn1c(=O)c2cnc(Nc3ccc(N4CCN(C)CC4)cc3)nc2n1-c1cn2c(n1)COCC2` [Example 32, 2-allyl-1-(5,6-dihydro-8H-imidazo[2,1-c][1,4]oxazin-2-yl)-6-((4-(4-methylpiperazin-1-yl)phenyl)amino)-1,2-dihydro-3H-pyrazolo[3,4-d]pyrimidin-3-one], the IC50 on Wee1 kinase (setting [1]) was 10 to 100 nM; with H23 cells it was greater than 1000 nM.
As to `C=CCn1c(=O)c2cnc(Nc3ccc(N4CCN(C)CC4)cc3)nc2n1-c1cc2c(cn1)CC[C@@]2(C)O` (single isomer, unassigned) [Example 37B], the IC50 in the test on H23 cells is greater than 1000 nM.
For `C=CCn1c(=O)c2cnc(Nc3ccc(N4CCN(C)[C@@H](C)C4)cc3)nc2n1-c1ccc2c(n1)[C@](C)(O)CC2` (single isomer, unassigned) [Example 17B], the IC50 in the test with H23 cells was in the range of 100 to 1000 nM.
